The target in the experiment is T1, deoxyribose dehydrogenase (iorAB-like dehydrogenase) (Pseudomonas simiae, UniProt A0A1N7UDX6).
T1 construct: gene PS417_10885; each subunit His-tagged (pET32a) in E. coli BL21(DE3), bands at 80 kDa (10885) and 17 kDa (10890); not purified, two clarified lysates mixed; native cytochrome c PS417_10880 not included; with Isoquinoline 1-oxidoreductase subunit alpha-like (deoxyribose dehydrogenase small subunit)
T1 sequence (A0A1N7UDX6 2-739): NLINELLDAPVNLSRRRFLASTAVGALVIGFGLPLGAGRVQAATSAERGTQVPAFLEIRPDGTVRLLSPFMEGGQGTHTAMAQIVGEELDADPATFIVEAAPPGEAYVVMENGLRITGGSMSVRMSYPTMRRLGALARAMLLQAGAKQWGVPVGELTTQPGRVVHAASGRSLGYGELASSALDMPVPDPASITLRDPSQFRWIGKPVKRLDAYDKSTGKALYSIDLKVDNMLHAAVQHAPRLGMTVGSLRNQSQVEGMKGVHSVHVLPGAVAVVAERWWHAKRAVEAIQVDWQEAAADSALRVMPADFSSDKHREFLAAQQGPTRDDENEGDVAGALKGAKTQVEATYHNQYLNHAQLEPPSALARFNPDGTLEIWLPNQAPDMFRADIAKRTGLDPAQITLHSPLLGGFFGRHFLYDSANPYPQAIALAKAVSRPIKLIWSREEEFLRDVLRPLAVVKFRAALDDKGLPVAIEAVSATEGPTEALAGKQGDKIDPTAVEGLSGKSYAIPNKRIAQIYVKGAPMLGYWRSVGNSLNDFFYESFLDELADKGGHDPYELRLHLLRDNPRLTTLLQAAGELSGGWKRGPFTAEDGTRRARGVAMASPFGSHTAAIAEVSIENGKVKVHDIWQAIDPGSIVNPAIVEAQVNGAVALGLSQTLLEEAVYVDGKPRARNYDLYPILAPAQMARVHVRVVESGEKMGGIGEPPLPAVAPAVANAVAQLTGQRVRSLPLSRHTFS
T1 sequence (A0A1N7UJP4 1-151 partner): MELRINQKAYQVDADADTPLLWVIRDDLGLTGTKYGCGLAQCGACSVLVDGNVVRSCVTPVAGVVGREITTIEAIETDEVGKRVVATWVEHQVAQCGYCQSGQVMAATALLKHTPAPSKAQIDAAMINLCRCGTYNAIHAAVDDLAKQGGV
As to the kind of experiment: LC-MS/MS detection of deoxyribonate product, mixed E. coli lysates against empty-vector lysate. It counts as biochemical. Conditions: 1 mM deoxyribose, 100 uM phenazine methosulfate as electron acceptor, 100 mM NH4HCO3, room temperature, 1 h, with or without lactonase.

In the case of `O=C(O)C[C@H](O)[C@H](O)CO` [2-deoxy-D-ribonate], the “LC-MS/MS detection of deoxyribonate product, mixed E. coli lysates against empty” value (may form through spontaneous or lysate hydrolysis of deoxyribono) is recorded as “this product had a fragmentation pattern very similar to that of a 2-deoxy-D-ribonate standard”.

Turning to `OC[C@H]1OC(O)C[C@@H]1O` (stereo partly drawn) [2-deoxy-D-ribose], the “LC-MS/MS detection of deoxyribonate product, mixed E. coli lysates against empty” value is given as “The iorAB-like dehydrogenase converted deoxyribose to a compound with the same mass-to-charge ratio”.

Values taken from paper PMC6365646, “Oxidative Pathways of Deoxyribose and Deoxyribonate Catabolism” (mSystems, 2019).
